Measurements from patent US8080522B2, “Polyethlene glycol modifications of thymosin alpha-1” (Institute of Pharmacology and Toxicology Academy of …, priority 2005, dated 2011).

Key:
[1] = Plasma concentration / pharmacokinetics in mouse (competitive ELISA); assay type: in vivo; details: 300 μg per mouse, injected peritoneally, parameters in 24 h
Procedure: Coating antigen: Dilute Tα1 detection antigen stock solution to a final concentration of 2 μg/mL with coating solution, and add it into the wells of ELISA plate for 0.1 mL per well, and incubate at 4° C. for 5 days. Then wash the ELISA plate 3 times with washing buffer, each 0.2 mL/well and 3 min/time. Add 0.2 mL blocking buffer to each well, incubate for 1.5 hours at 37° C., wash plate 2 times by washing buffer, and spin dried.
Sample preparation: Weight sample accurately, dissolve it in saline to a concentration of 1.5 mg/mL. Administrate 0.2 Ml by injection to each mouse peritoneally. Collect blood sample in 3 min, 20 min, 40 min, 1 h, 2 h, 3 h, 6 h, 8 h, 12 h, and 24 h. Collect serum by centrifuge the blood samples for 5 minutes at 10000 rpm, stored at −20° C. in a freezer. o prepare test sample, […] was added by 0.1 mL 1:1500 rabbit anti-Tα1 serum (final concentration is 1:6000), and 0.2 mL CD-1® mouse serum, and […]. Prepare blank control at the same time. Total volume is 0.4 mL. Incubate for 2 hours at 37° C. To prepare standard sample, Tα1 0.1 mL with different concentrations from 0.0004 to 400 μg/mL was added by 0.1 mL 1:1500 rabbit anti-Tα1 serum (final concentration is 1:6000), and 0.2 mL CD-1® mouse serum. Prepare blank control at the same time. Total volume is 0.4 mL. Incubate for 2 hours at 37° C.
Sample Testing Add the prepared test sample and standard sample to ELISA plate, 0.1 mL/well, reacting for 1 hour in 37° C. chamber. Wash the plates 3 times, spin dryed. Add substrate 0.1 mL/well for 10 minutes. Add 2 mol/L H2SO4 0.05 mL to each well to terminate the reaction. Measure the OD value at 450 nm. Plot the standard curve with the concentration of Tα1 standard sample as abscissa and OD value as vertical coordinate. Calculate the content of test sample according to this standard curve.

[2] = test system: spleen cell; experiment: Interferon-γ production of spleen cells stimulated by Con A (double antibody sandwich ELISA); assay type: cell-based; details: Table 1-2; for Concentration of IFN-γ: Con A 0.5 μg/mL, 24 hours, n = 3; for Enhancement percentage: versus Con A alone
Procedure: Prepare spleen cell suspension in sterile condition. Adjust cell concentration to 5×10^6 cell/mL by adding RPMI-1640 culture with 20% bovine serum. Add 0.5 mL cell suspension, 0.25 mL Con A (final concentration is 0.5 μg/mL) and 0.25 mL samples with different concentrations in 24-well plate; and add RPMI-1640 culture in control wells. Incubate the plates in a 5% CO2 chamber at 37° C. for 24 hours. Centrifuge and collect supernatant, test the content of IFN-γ in supernatant by double antibody sandwich ELISA. The protocol is according to the instruction on ELISA kit.

[3] = test system: T lymphocyte (spleen cell); experiment: T lymphocyte proliferation stimulated by Con A (3H-TdR incorporation); assay type: cell-based, mouse; details: Table 2-2; for 3H-TdR incorporation (cpm, x ± SD): Con A 0.5 μg/mL, 72 hours, n = 4; for Enhancement percentage: versus Con A alone
Procedure: Sacrifice mouse by draining artery blood, remove spleen in sterile condition, and make it to spleen cell suspension. After red blood cell lysis, wash for 3 times, and stain with Trypan Blue to count the living cells. The amount of living cells should be more than 95%. Dilute the cell concentration to 5×10^6 cell/mL by adding RPMI-1640 culture with 10% bovine serum. Add spleen cell suspension to a sterilized 96-well plate for 100 μL per well. The total amount is 200 μL per well (including 50 μL Con A and 50 μL medicament). Each sample concentration is repeated fro 3-4 wells. Incubate the plate in a 5% CO2 chamber for 72 hours, add 10 μci/mL ^3H-TdR 20 μL per well 16 hours before termination of the incubation, giving rise to a final concentration of 1.0 μci (37.0 KBq)/mL. Collect cells on filter membrane by using Herveste 96 cell harvester, dried in 80° C. oven for 20 minutes or dried in air. Put the dried filter membrane into 1450-423 microBeta sample bag, add scintillation liquid, and measure radioactivity (cpm) in Perkin Elmer MicroBeta Trilux 1450 Scintillation Counter.

[4] = Half-life in liver homogenate (HPLC); assay type: in vitro ADME; details: 37° C., sample 0.4 mg/mL or 0.8 mg/mL, read-out: t1/2 in liver homogenate (converted)
Procedure: Experimental method: Prepare 0.4 mg/mL or 0.8 mg/mL sample aqueous solution in centrifuge tube, adding 50 μL liver homogenate. Then incubate for different time in 37° C. water bath. Terminate the reaction and precipitate liver homogenate protein by heating the mixture in boiling water for 5 minutes. Centrifuge it (10000 rpm) for 10 minutes. Analyze the supernatant by HPLC. The data was statistically analyzed by Origin Prof. 5.0.
HPLC: Column temperature: 25° C.; Flow rate 1.0 mL/min; Detection wavelength: 200 nm; Mobile phase A: 0.1% TFA/H2O; Mobile phase B: 0.1% TFA/70% CH3CN.

AUC ([1]; n = 3): 3090 ng·h/mL
Cmax ([1]; serum, ip, 300 ug/animal, n = 3, read-out: Cmax): 448 ng/mL
Tmax ([1]; serum, ip, 300 ug/animal, n = 3, read-out: Tmax): 0.333 h
half-life [4]: 3.8 h
Substance: Ac-SDAACDTSSEITTKDLKEKKEVVEEAEN-OH [BMJBT001]
Concentration of IFN-γ ([2]; sample 1 μg/mL): 3000.5 ± 56.1 pg/mL
Enhancement percentage ([2]; sample 1 μg/mL): −7.9%
Concentration of IFN-γ ([2]; sample 10 μg/mL): 3584.2 ± 31.6 pg/mL
Enhancement percentage ([2]; sample 10 μg/mL): +10.0%
Concentration of IFN-γ ([2]; sample 100 μg/mL): 3618.5 ± 93.8 pg/mL
Enhancement percentage ([2]; sample 100 μg/mL): +11.0%
3H-TdR incorporation (cpm, x ± SD) ([3]; sample 10 μg/mL): 19289 ± 4456 cpm
Enhancement percentage ([3]; sample 10 μg/mL): +65.7%
3H-TdR incorporation (cpm, x ± SD) ([3]; sample 50 μg/mL): 19972 ± 3287 cpm
Enhancement percentage ([3]; sample 50 μg/mL): +71.6%
3H-TdR incorporation (cpm, x ± SD) ([3]; sample 100 μg/mL): 21119 ± 5339 cpm
Enhancement percentage ([3]; sample 100 μg/mL): +81.4%
